Consider one compound from article PMC8691750, “Euphorbia Factor L2 ameliorates the Progression of K/BxN Serum-Induced Arthritis by Blocking TLR7 Mediated IRAK4/IKKβ/IRF5 and NF-kB Signaling Pathways” (Frontiers in Pharmacology, 2021).

“Also recorded” adds a separate entry of the source.

The test system of assay [1] is chemokine, cytokine and TLR pathway mRNA expression in the ankles. Briefly: Quantitative RT-PCR of ankles of STA mice. Format: in vivo, C57BL/6 mice. As for the experimental part: (§1) K/BxN serum was collected from K/BxN mice at 8 weeks of age, pooled, aliquoted and stored at -20 °C. K/BxN serum-transfer arthritis (STA) model was induced by intraperitoneal (i.p.) application of 150 μL of serum at day 0. Clinical score for arthritis severity was assessed using a 0–4 point scale for each paw at various time points (0–16 total score) as described previously ([Luo et al., 2011]). 8-week old male C57BL/6 mice were purchased from Dashuo Animal Center (China, Chengdu), maintained at 25°C, and exposed to 12-h light and dark cycles. Mice were fed with standard laboratory chow and water with 1 week of acclimatization. Naive mice were used as the control group. Except the control mice, all mice were i. p. injected with 150 μL of serum, then randomly divided into the following groups and treated with different compounds daily for the consecutive 8 days: 1) STA group; 2) Solvent control group, mice were gavaged with the solvent; 3) Dexamethasone (DEX) group, mice were gavaged with 30 mg/kg DEX; 4) EFL2 group 1, mice were gavaged with 40 mg/kg EFL2; 5) EFL2 group 2, mice were intraperitoneally injected with 15 mg/kg EFL2; 6) EFL2 group 3, […] were intraperitoneally injected with 40 mg/kg EFL2. […] All animal experiments were conducted in accordance with ethical regulation for animal care and use in China.
Frozen right ankles were pulverized with liquid nitrogen and total RNA was extracted using Trizol reagent (Invitrogen). RNA was reverse transcribed into cDNA using an oligo d(T) primer. The obtained cDNA was applied for quantitative RT-PCR using SYBR Green I-dTTP (Eurogentec). Samples were analyzed in triplicate, and β-actin was used as endogenous controls. Data was analyzed using the 2^−ΔΔCt method and is expressed as “Fold change” (expression relative to housekeeping gene and normalized to reference sample).

The subject of assay [2] is TNF-α, IL-4, IL-17A, IL-1β and IL-6 in serum. In words: Cytokines in sera of STA mice (CBA Multiplex kit, ELISA). Format: in vivo, C57BL/6 mice. As for the experimental part: as §1
(§2) IL-4, IL-17A and TNF-α in sera from different group mice were measured using CBA Multiplex kit (BD, United States). The concentrations of IL-1β and IL-6 in serum or supernatant were detected by ELISA Kit (MULTI SCIENCES, China) according to the manufacturers’ instructions.
In general terms: In an ELISA, binding on a coated surface is turned into a signal by an enzyme label.

Assay [3] concerns TLR7 (R837) induced cytokine production in PBMCs. Briefly: ELISA of IL-1β and IL-6 in supernatant of R837 stimulated PBMCs. Conditions: R837-stimulated human PBMCs. Format: cell-based, human. As to the method:
RAW264.7 cells, a mouse macrophage cell line, were cultured in DMEM medium containing 10% fetal bovine serum (FBS), 1% penicillin-streptomycin and maintained at 37 °C in 5% CO2 humidified air. Bone marrow-derived macrophages (BMDMs) generation was performed as following description. In brief, bone marrow cells were harvested from tibias and femurs of C57BL/6 mice and differentiated for 7 days in DMEM medium supplemented with 10% FBS, 1% penicillin-streptomycin and 50 ng/ml M-CSF. For human peripheral blood mononuclear cells (PBMCs) preparation, 5 ml peripheral venous blood was obtained from healthy donors in West China Hospital. PBMCs were isolated with Human Lymphocyte Separation Medium (LTS1077, Tian Jing, China) according to the manufacturer’s instructions. The experimental protocols were performed according to the approved guidelines established by the Institutional Human Research Subject Protection Committee of the Ethics Committee of West China Hospital, Sichuan University, China.
RAW264.7 cells (5×10^5/ml), BMDMs (5×10^5/ml) and PBMCs (2×10^6/ml) were plated in 96-well plates and incubated overnight. […]
as §2

Assay [4] deals with neutrophils, macrophages and inflammatory monocytes in the blood. Briefly: Flow cytometry of myeloid cells in peripheral blood of STA mice. Format: in vivo, C57BL/6 mice. The following applies: EFL2 40 mg/kg i.p. As to the method: K/BxN serum was collected from K/BxN mice at 8 weeks of age, pooled, aliquoted and stored at -20 °C. K/BxN serum-transfer arthritis (STA) model was induced by intraperitoneal (i.p.) application of 150 μL of serum at day 0. Clinical score for arthritis severity was assessed using a 0–4 point scale for each paw at various time points (0–16 total score) as described previously ([Luo et al., 2011]). 8-week old male C57BL/6 mice were purchased from Dashuo Animal Center (China, Chengdu), maintained at 25°C, and exposed to 12-h light and dark cycles. Mice were fed with standard laboratory chow and water with 1 week of acclimatization. Naive mice were used as the control group. […]
150 μL peripheral blood and the hind ankles were collected on day 5 and 13 post KBx/N serum transfer, respectively. […] Data were acquired using a BD FACSCalibur flow cytometer (BD Biosciences) and were analyzed by using FlowJo software (Version 7.6.1).
(In general: Flow cytometry measures light scatter and fluorescence of single cells or particles in a stream.)

In a further assay the target is T1, IRF5 (Mus musculus, UniProt P56477).
T1 construct: host or cells: RAW264.7
T1 sequence (P56477 whole entry): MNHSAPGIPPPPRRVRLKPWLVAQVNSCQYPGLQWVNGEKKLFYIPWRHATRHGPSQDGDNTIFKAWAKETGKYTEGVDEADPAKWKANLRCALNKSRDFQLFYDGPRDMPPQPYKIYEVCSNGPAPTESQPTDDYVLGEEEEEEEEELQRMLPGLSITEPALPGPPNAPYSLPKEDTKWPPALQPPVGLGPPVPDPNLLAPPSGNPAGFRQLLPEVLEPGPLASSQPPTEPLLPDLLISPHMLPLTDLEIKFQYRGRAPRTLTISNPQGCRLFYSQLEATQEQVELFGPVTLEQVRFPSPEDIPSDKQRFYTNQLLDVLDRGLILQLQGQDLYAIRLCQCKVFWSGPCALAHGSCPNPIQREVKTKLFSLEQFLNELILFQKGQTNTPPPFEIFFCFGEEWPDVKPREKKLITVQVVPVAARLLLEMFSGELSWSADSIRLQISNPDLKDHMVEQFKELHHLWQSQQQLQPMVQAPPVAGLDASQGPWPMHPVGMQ
Briefly: IRF5 plasmid transfection (overexpression) in RAW264.7 cells. Format: cell-based. The following applies: RAW264.7 transfected with IRF5 plasmid. As for the experimental part:
RAW264.7 cells (4×10^5 cells/well) were seeded into 6-well plates before transfection with the plasmid. When cells confluency reached 60%, RAW264.7 cells were transfected with plasmid IRF5-mouse vector (Origene, United States) using TransEasy™ Transfection Reagent (FOREGENE, China). IRF5 plasmid was suspended with transfection reagent as 1:1.5. Cells were incubated at 37°C for 24 h, then treated with EFL2 and R837 for another 24 h. The supernatant was collected for IL-1β and IL-6 measurements using ELISA kits as described above. For western blot detection, RAW264.7 cells were pretreated with EFL2 (10 µM) for 1 h and stimulated with R837 (20 μg/ml) for 40 min after IRF5 plasmid transfection. Cell lysates were prepared as described above.

The subject of assay [5] is K/BxN serum-transfer arthritis (STA) model. In words: K/BxN serum-transfer arthritis (STA) model, arthritic index / clinical score. Format: in vivo, C57BL/6 mice. The following applies: STA mice. As for the experimental part: as §1
[6] abbreviates: STA mice day 5, EFL2 40 mg/kg i.p.

Turning to `C=C1C(OC(=O)c2ccccc2)CC2C(C=C(C)C(=O)C3(OC(C)=O)CC(C)C(OC(=O)c4ccccc4)C3C1OC(C)=O)C2(C)C` (stereo not drawn) [EFL2, Euphorbia factor L2], in assay [1] (setting [6]), the “CXCL1 mRNA expression in the ankles” value is on record as “remarkably down-regulated” and the “CXCL5 mRNA expression in the ankles” value is “remarkably down-regulated”. For the same compound, in assay [1] (STA mice, EFL2 15 mg/kg i.p.), the “CCL3 mRNA expression in the ankles” value is given as “only significantly decreased”. The “CCL3 gene expression in the ankles” value in assay [1] (STA mice, EFL2 40 mg/kg i.p.) was “significantly reduced”. Further, in assay [1] (STA mice, EFL2 40 mg/kg i.p., RT-PCR), the “mRNA expression of up-regulated TLR pathway genes (TLR7, TLR2, TLR9, Myd88, IRAK1/4, Nfkbia/ib, IRF5, Rel, Map3K7, Mapk8) in ankles” value is on record as “robust inhibitory effect”. Moreover, in assay [1] (STA mice, EFL2 i.p. treatment), the “IL-1β mRNA expression in the ankles” value was “robustly inhibited” and the “IL-6 mRNA expression in the ankles” value is “robustly inhibited”. Besides, the “IL-6 level in sera” value in assay [2] (STA mice, EFL2 15 mg/kg i.p., day 8) was “only effectively inhibited”. In assay [2] (STA mice, EFL2 40 mg/kg i.p.), the “IL-1β level in sera” value was “significantly reduced” and the “IL-6 level in sera” value is “significantly reduced”. In assay [2] (control, STA and STA mice treated with DEX or EFL2), the “TNF-α, IL-4 and IL-17A levels in blood (other cytokines)” value is on record as “did not affect”. Further, in assay [3], the “suppressive effect on IL-1β production compared with IL-6” value is on record as “prior to that on IL-6”. For the same compound, in assay [4], the “expansions of three myeloid cells subsets in the blood” value is “more robust suppressive effect”. Further, on IRF5 (EFL2 10 μM, R837), the “suppressive effect of EFL2 on nuclear translocation of IRF5 after overexpression of IRF5” value is “significantly reversed”. Also, the “EFL2-induced reduction of IL-1β and IL-6 after overexpression of IRF5” value on IRF5 (EFL2 and R837 24 h) is reported as “effectively reversed”. In addition, the “arthritis symptoms (clinical score)” value in assay [5] (EFL2 15 mg/kg i.p. daily, particularly acute phase) was “to a moderate extent, alleviated”. In addition, the “joint swelling and redness (clinical score)” value in assay [5] (EFL2 40 mg/kg i.p. daily) is “dramatically improved”. In addition, the “arthritis severity (clinical score)” value in assay [5] (EFL2 40 mg/kg oral (gavage) daily, 40 mg/kg) is given as “did not affect; also recorded: hardly improved”.
